In publication PMC7280531, “A PROTAC peptide induces durable β-catenin degradation and suppresses Wnt-dependent intestinal cancer” (Cell Discovery, 2020):
Where a SMILES comes first, the peptide text is derived from it. Bridges are numbered along the chain shown (N, C = ends). [ ]: non-standard residue; d: D form. S5 = C=CCCC[C@](C)(N)C(=O)O; Ahx = NCCCCCC(=O)O

Legend:
[1] = system: CRC patient-derived organoids; test: CRC patient-derived tumor organoid culture; format: cell-based, human; conditions: 10 μM
Experimental: Fig. 6 xStAx-VHLL restrains the survival of CRC patient-derived organoids. a Twelve CRC patient-derived organoids, numbered from C-01 to C-12, were treated with DMSO and 10 μM xStAx-VHLL for 4 days. The organoids survival rate of each group was calculated at day 4. b The C-08 organoids were treated with DMSO and 10 μM xStAx-VHLL for 4 days. The trypan blue staining at day 4 indicated the dead organoids. Scale bar = 100 μm. c The percentage of survived C-08 organoids was calculated each day after xStAx-VHLL treatment. d The C-08 organoids were treated with DMSO or 10 μM xStAx-VHLL for 48 h and then harvested for immunoblotting. Relative β-catenin protein levels were quantified. e The C-08 organoids were treated with DMSO and 10 μM xStAx-VHLL for 4 days. Scale bar = 100 μm. f The percentage of survived organoids in C-11 group was calculated each day after xStAx-VHLL treatment. g The C-11 organoids were treated with DMSO or 10 μM xStAx-VHLL for 48 h and then harvested for immunoblotting. Relative β-catenin protein levels were quantified. The relative band intensity was quantified with ImageJ and normalized to GAPDH levels.
CRC patient tumor tissues were washed with cold HBSS. After removing the muscle tissue, the epithelial tumor tissues were cut into small pieces and vigorously suspended. Then the tissue suspension was centrifuged (3 min at 300–400 g) and tumor fraction was enriched at the bottom. Next, the tumor fraction was embedded in Matrigel (BD Biosciences) and seeded on 24-well plates with the culture medium, which includes Advanced DMEM/F12 supplemented with Penicillin/Streptomycin, GlutaMAX-I, N2, B27, N-acetylcysteine (Sigma-Aldrich), CHIR-99021 (5 μM, Selleck), A-83–01 (0.5 μM, Cayman), SB202190 (10 μM, Selleck), gastrin (1 nM, Tocris), Y27632 (10 μM, Enzo), PEG2 (2.5 μM, Selleck), nicotinamide (10 mM, Sigma-Aldrich), EGF (50 ng/mL, Invitrogen), Noggin (100 ng/mL, R&D) and R-spondin1 (500 ng/mL).

[2] = system: Wnt/β-catenin signaling; test: Topflash luciferase reporter assay in HEK293T cells; format: cell-based; conditions: Wnt3a CM, 24 h
Experimental: Dual luciferase reporter assay system (Promega) was used. HEK293T cells, cultured in 24-well plates, were transfected with 200 ng Topflash plasmid and 30 ng Renilla plasmid for 3-well cells. […] Then harvested the cells for luciferase activity measurement.

[3] = system: LoVo cells; test: Tumor formation in nude mice from pretreated LoVo cells; format: in vivo, BALB/C nude mice
Experimental: Next, to examine the influence of the peptides on tumor formation, 3 × 10^6 LoVo cells were pretreated with each peptide at 50 μM for 24 h, followed by subcutaneous injection into BALB/C nude mice. After 3 weeks when tumors were visible, the mice were sacrificed for comparison of subcutaneous tumors among different groups.
LoVo cells cultured were pretreated with DMSO pr peptides (50 μM) for 24 h. Then the cells were digested with trypsin and centrifuge (3 min at 300–400 g). Cell pellets were washed with cold PBS three times and the cell number was counted. The BALB/C nude mice were subcutaneously injected with 3 × 10^6 cells. Three weeks later, the nude mice were sacrificed and dissected for tumors. Tumor weight was quantified.

[4] = system: Axin2 expression; test: Axin2^LacZ Wnt reporter mice, β-galactosidase staining of small intestine; format: in vivo; conditions: i.p. injection, 7 doses/14 days
Experimental: The small intestines were isolated from Axin2^LacZ reporter mice, washed with PBS and fixed in 4 % paraformaldehyde for 1 h at room temperature, then cut into small pieces (1 cm). The tissue pieces were stained with in situ β-galactosidase staining kit (Beyotime) according to the manufacturer’s instruction. The stained tissues were transferred to tissue cassettes and paraffin blocks prepared using standard methods. The tissues were sliced into 5 μm thick sections with paraffin slicing machine (RM2235, Leica) and subjected to hematoxylin staining.

[5] = system: wild-type organoids; test: Wild-type mouse intestinal organoid culture; format: cell-based; conditions: 10 μM peptides
Experimental: Fig. 5 xStAx-VHLL inhibits the growth of wild-type and APC^−/− organoids. a Wild-type organoids were cultured with 10 μM peptides for 4 days. The trypan blue staining at day 4 indicated the dead organoids. Scale bar = 100 μm. […] Relative β-catenin and cleaved caspase3 protein levels were quantified. e Wild-type organoids were cultured with 10 μM peptides for 3 h and harvested for qPCR analysis of Wnt target genes. f APC^−/− organoids were cultured with 50 μM peptides for 4 days. The trypan blue staining at day 4 indicated the dead organoids. Scale bar = 100 μm. […] Relative β-catenin and cleaved caspase3 protein levels were quantified. The relative band intensity was quantified with ImageJ and normalized to GAPDH levels.
Mouse intestinal crypts isolation and organoid culture were performed as previously described. Briefly, mouse intestine was cut longitudinally and washed three times with cold PBS. Villi were carefully scraped away and small pieces (5 mm) of intestine were incubated in 0.5 M EDTA in PBS for 40 min on ice. These pieces were then vigorously suspended in cold PBS and the mixture was passed through 70 μm cell strainer (BD Biosciences). The crypt fraction was enriched through centrifugation (3 min at 300–400 g). Then the crypts were embedded in Matrigel (BD Biosciences) and seeded on 48-well or 24-well plates. The intestinal organoid culture medium consists of Advanced DMEM/F12 supplemented with Penicillin/Streptomycin, GlutaMAX-I, N2, B27 and N-acetylcysteine (Sigma-Aldrich) and combination of growth factors including EGF (50 ng/mL, Invitrogen), Noggin (100 ng/mL, R&D) and R-spondin1 (500 ng/mL). The organoids were treated with proper dilution of peptides in the medium.
Supplementary Fig. S7. xStAx-VHLL restricts Lgr5+ intestinal stem cell
population and cell viability in intestinal organoids.
The organoids derived from the small intestine of Lgr5-GFP mice were treated with
10 μM peptides for 36 h and then collected for CytoFLEX flow cytometry to count
Lgr5+ intestinal stem cells (a) or viable cells (b). Data from 3 independent
(1 picture or pasted object on this page, not shown here)

[6] = Lgr5-GFP organoids, 36 h, flow cytometry

CC[C@H](C)[C@@H]1NC(=O)[C@@](C)(NC(=O)[C@H](CCCNC(=N)N)NC(=O)[C@@H]2CCCN2C(=O)[C@H](Cc2c[nH]c3ccccc23)NC(=O)[C@H](CCCNC(=N)N)NC(=O)[C@H](CCCNC(=N)N)NC(C)=O)CCCC=CCCC[C@@](C)(C(=O)N[C@@H](Cc2c[nH]cn2)C(=O)N[C@H](C(=O)N[C@@H](CCCNC(=N)N)C(=O)N[C@@H](CCCNC(=N)N)C(=O)N[C@H](C(=O)N[C@@H](Cc2c[nH]c3ccccc23)C(=O)N[C@@H](CCCNC(=N)N)C(=O)NCCCCCC(=O)N[C@@H](C)C(=O)N[C@@H](CC(C)C)C(=O)N[C@@H](C)C(=O)N2CCC[C@H]2C(=O)N[C@@H](Cc2ccc(O)cc2)C(=O)N[C@H](C(=O)N2CCC[C@H]2C(N)=O)[C@@H](C)CC)C(C)C)C(C)C)NC(=O)[C@H](CC(=O)O)NC(=O)[C@H](CC(C)C)NC1=O [xStAx-VHLL] (Ac-RRWPR[S5]ILD[S5]HVRRVWR[Ahx]ALAPYIP-NH2; staple 6-10; N-terminus and C-terminus assumed)
β-catenin protein level in C-08 organoids ([1]; 2 days (48 h), immunoblot): reduced the β-catenin protein level | survival of C-11 organoids ([1]; 4 days): insensitive to xStAx-VHLL | patient-derived organoids whose survival was potently inhibited ([1]; 4 days, 12 CRC samples C-01 to C-12): 11/12 | survival of C-08 and C-05 organoids ([1]; 4 days, compared with DMSO control): strong inhibition function | inhibition of Wnt-induced Topflash-luciferase compared with small-molecule inhibitors ([2]; 70 μM xStAx-VHLL vs 10 μM XAV939, 20 μM PRI-724, 100 μM PNU-74654, 10 μM MSAB): comparable inhibition | dose dependence of effect on Wnt signaling (Topflash) ([2]; indicated concentrations): dose-dependent effect on Wnt signaling | Wnt3a-induced expression of the Topflash-luciferase reporter ([2]; peptides 70 μM each): more potent in decreasing the Wnt3a-induced expression of the reporter | subcutaneous tumor size and weight ([3]; 3 × 10^6 LoVo cells pretreated with 50 μM peptide for 24 h, s.c. injection, 3 weeks, n = 10 mice per group): significantly smaller in size and weight | β-catenin protein level in tumor extracts ([3]; tumors from pretreated LoVo cells, immunoblot, compared with other groups): apparently decreased | Wnt target genes Axin2, Cyclin D1 and Myc in tumors ([3]; tumors from pretreated LoVo cells, qPCR): also decreased | Axin2 expression (β-galactosidase staining) [4]: significantly blocked Axin2 expression | Wnt signaling target genes Lgr5, Axin2, Cyclin D1 and Myc ([5]; 3 h, qPCR): remarkably decreased | cleaved caspase 3 level ([5]; 24 h, immunoblot): increased the cleaved caspase 3 level | β-catenin protein level ([5]; 24 h, immunoblot): reduced the β-catenin protein level | organoid survival and bud formation ([5]; 4 days): obviously impeded organoid survival and bud formation | Lgr5+ intestinal stem cells [5, 6]: reduced | viable cell population [5, 6]: also decreased
